Like-named read-outs stand apart in the source and are kept apart here.
Assays:
[1] = Beagle pharmacokinetic study (ig/sc/iv, plasma LC/MS/MS); format: in vivo, beagles; settings: for AUC(0-t) / half-life / Cmax: dog, plasma; for AUC(0-t): read-out: Area under curve AUC0-72; for half-life: read-out: Half life T½ (converted); for Cmax: read-out: Plasma concentration Cmax
Method: Taking beagles as test animals, and the drug concentrations in dog plasma at various times after intragastric administration (ig)/subcutaneous injection (sc)/intravenous injection (iv) administration of the compound of Example 1-1 and Positive Control Example 1 were measured by using LC/MS/MS method. The pharmacokinetic performance in beagles of the compounds of the present disclosure was studied and the pharmacokinetic profile thereof was evaluated.
18 non-naïve beagles (999M-004, medicilon) with 7-12 kg, every 3 of which were in one group.
The intragastric administration group: a certain amount of the compounds was weighed, ethanol with a volume of 5% of the final volume, 20% PG, 45% PEG300 and 30% deionized water were added (the pH was adjusted to be about 2 with 0.01 N HCl), and the reaction mixture was subjected to ultrasonic stirring for uniform mixing to give an administration solution at a concentration of 0.8 mg/mL.
The subcutaneous injection administration group: a certain amount of the compounds was weighed, 2% aqueous poloxamer 188 solution with a proper volume was added, and the reaction mixture was subjected to ultrasonic stirring for uniform mixing to give a suspension administration solution at a concentration of 200 mg/mL.
The intravenous administration group: a certain amount of the compounds was weighed, 5% volume of DMSO, 30% PG, 30% PEG400 and 35% volume of normal saline were added, and the reaction mixture was subjected to vortex ultrasonic stirring for uniform mixing to give an administration solution at a concentration of 0.5 mg/mL.
Beagles were intragastrically administered with the compounds after fasting overnight, at a dose of 4.0 mg/kg and a volume of 5.0 mL/kg.
Beagles were subcutaneously injected with the compounds after fasting overnight, at a dose of 6.0 mg/kg and a volume of 0.03 mL/kg.
Beagles were intravenously injected with the compounds after fasting overnight, at a dose of 1.0 mg/kg and a volume of 2 mL/kg.
Beagles were intragastrically administered with the compound of Example 1-1/Positive Control Example 1, and 1 mL of blood was collected from the orbit before administration and at 0.25 h, 0.5 h, 1.0 h, 2.0 h, 4.0 h, 6.0 h, 8.0 h, 12.0 h, 24 h, 32 h, 48 h, 56 h and 72 h after administration, respectively, and placed in EDTA-K2 anticoagulant blood collection tubes, plasma was centrifuged (centrifugal force: 2200 g, centrifugation time: 10 min, 2-8° C.), and stored at −80° C., and food intake was resumed 3 h after administration.
The compound of Example 1-1/Positive Control Example 1 was subcutaneously injected to beagles, and 1 mL of blood was collected before administration and at 1.0 h, 3.0 h, 8.0 h, 24 h, 48 h, 72 h, 96 h, 168 h, 336 h, 432 h and 504 h after administration, respectively, and placed in EDTA-K2 anticoagulant blood collection tubes, plasma was centrifuged (centrifugal force: 2200 g, centrifugation time: 10 min, 2-8° C.), and stored at −80° C., and food intake was resumed 3 h after administration.
The content of the compound to be tested in the plasma of beagles was determined after the intragastric administration of the compounds at different concentrations: 20 μL of the plasma in beagles at each time after administration was taken, 200 μL of methanol containing internal standard (100 ng/mL) was added, the reaction mixture was subjected to vortex mixing for 1 min, and centrifuged for 7 min (centrifugal force: 18000 g), and 1 μL of the supernatant was taken from the plasma sample for LC/MS/MS analysis. […]

[2] = Monkey pharmacokinetic study (iv, plasma LC/MS/MS); format: in vivo, cynomolgus monkeys; settings: cynomolgus monkey, intravenous injection, 1 mg/kg
Method: Taking cynomolgus monkeys as test animals and the drug concentrations in monkey plasma at various times after intravenous injection (iv) of the compounds of Example 1-1 and Positive Control Example 1 were measured by using LC/MS/MS method. The pharmacokinetic performance in cynomolgus monkeys of the compounds of the present disclosure was studied and the pharmacokinetic profile thereof was evaluated.
6 non-naïve cynomolgus monkeys (999M-004, medicilon) with 2-5 kg, every 3 of which were in one group.
A certain amount of the compounds was weighed, 5% volume of DMSO, 30% PG, 30% PEG400 and 35% volume of normal saline were added, and the reaction mixture was subjected to vortex ultrasonic stirring for uniform mixing to give a clean administration solution at a concentration of 0.5 mg/mL.
Monkeys were intravenously injected with the compounds after fasting overnight, at a dose of 1.0 mg/kg and a volume of 2 mL/kg.
The compound of Example 1-1/Positive Control Example 1 was intravenously injected to monkeys, and 1 mL of blood was collected through femoral vein before administration and at 5 min, 0.25 h, 0.5 h, 1.0 h, 2.0 h, 4.0 h, 8.0 h, 12.0 h, 24 h, 32 h, 48 h, 56 h and 72 h after administration, respectively, and placed in EDTA-K2 anticoagulant blood collection tubes, plasma was centrifuged (centrifugal force: 2200 g, centrifugal time: 10 min, 2-8° C.), and stored at −80° C., and food intake was resumed 3 h after administration.

[3] = po, intragastric administration, 4 mg/kg
[4] = sc, subcutaneous injection, 6 mg/kg

SMILES: CC(C)(C#Cc1ccc(-c2ccc(Cl)c3c(NS(C)(=O)=O)nn(CC(F)(F)F)c23)c([C@H](Cc2cc(F)cc(F)c2)NC(=O)Cn2nc(C(F)(F)F)c3c2C(F)(F)[C@@H]2C[C@H]32)n1)S(C)(=O)=O [Positive Control Example 1, N—((S)-1-(3-(4-chloro-3-(methylsulfonamido)-1-(2,2,2-trifluoroethyl)-1H-indazol-7-yl)-6-(3-methyl-3-(methylsulfonyl)but-1-yn-1-yl)pyridin-2-yl)-2-(3,5-difluorophenyl)ethyl)-2-((3bS,4aR)-5,5-difluoro-3-(trifluoromethyl)-3b,4,4a,5-tetrahydro-1H-cyclopropa[3,4]cyclopenta[1,2-c]pyrazol-1-yl)acetamide, reference compound]
- AUC(0-t) ([1]; intravenous injection, 1 mg/kg): 14700 ng·h/mL
- half-life ([1]; intravenous injection, 1 mg/kg): 13.7 h
- Cmax ([1]; intravenous injection, 1 mg/kg): 1110 ng/mL
- AUC(0-t) [1, 3]: 11200 ng·h/mL
- half-life [1, 3]: 23 h
- Cmax [1, 3]: 414 ng/mL
- AUC(0-t) [1, 4]: 17700 ng·h/mL
- Cmax [1, 4]: 54.6 ng/mL
- Clearance CLz/F ([1]; intravenous injection, 1 mg/kg): 1.1 mL/min/kg
- Clearance CLz/F [2]: 7.8 mL/min/kg
- AUC(0-t) ([2]; plasma, read-out: Area under curve AUC0-72): 2130 ng·h/mL
